{"source": "paper PMC9837035", "about": "(Nature Communications, 2023)", "key": {"NSD2 (E1099K)": {"target": "NSD2 (E1099K) (Homo sapiens, UniProt O96028, E1099K)", "sequence (O96028 whole entry E1099K)": "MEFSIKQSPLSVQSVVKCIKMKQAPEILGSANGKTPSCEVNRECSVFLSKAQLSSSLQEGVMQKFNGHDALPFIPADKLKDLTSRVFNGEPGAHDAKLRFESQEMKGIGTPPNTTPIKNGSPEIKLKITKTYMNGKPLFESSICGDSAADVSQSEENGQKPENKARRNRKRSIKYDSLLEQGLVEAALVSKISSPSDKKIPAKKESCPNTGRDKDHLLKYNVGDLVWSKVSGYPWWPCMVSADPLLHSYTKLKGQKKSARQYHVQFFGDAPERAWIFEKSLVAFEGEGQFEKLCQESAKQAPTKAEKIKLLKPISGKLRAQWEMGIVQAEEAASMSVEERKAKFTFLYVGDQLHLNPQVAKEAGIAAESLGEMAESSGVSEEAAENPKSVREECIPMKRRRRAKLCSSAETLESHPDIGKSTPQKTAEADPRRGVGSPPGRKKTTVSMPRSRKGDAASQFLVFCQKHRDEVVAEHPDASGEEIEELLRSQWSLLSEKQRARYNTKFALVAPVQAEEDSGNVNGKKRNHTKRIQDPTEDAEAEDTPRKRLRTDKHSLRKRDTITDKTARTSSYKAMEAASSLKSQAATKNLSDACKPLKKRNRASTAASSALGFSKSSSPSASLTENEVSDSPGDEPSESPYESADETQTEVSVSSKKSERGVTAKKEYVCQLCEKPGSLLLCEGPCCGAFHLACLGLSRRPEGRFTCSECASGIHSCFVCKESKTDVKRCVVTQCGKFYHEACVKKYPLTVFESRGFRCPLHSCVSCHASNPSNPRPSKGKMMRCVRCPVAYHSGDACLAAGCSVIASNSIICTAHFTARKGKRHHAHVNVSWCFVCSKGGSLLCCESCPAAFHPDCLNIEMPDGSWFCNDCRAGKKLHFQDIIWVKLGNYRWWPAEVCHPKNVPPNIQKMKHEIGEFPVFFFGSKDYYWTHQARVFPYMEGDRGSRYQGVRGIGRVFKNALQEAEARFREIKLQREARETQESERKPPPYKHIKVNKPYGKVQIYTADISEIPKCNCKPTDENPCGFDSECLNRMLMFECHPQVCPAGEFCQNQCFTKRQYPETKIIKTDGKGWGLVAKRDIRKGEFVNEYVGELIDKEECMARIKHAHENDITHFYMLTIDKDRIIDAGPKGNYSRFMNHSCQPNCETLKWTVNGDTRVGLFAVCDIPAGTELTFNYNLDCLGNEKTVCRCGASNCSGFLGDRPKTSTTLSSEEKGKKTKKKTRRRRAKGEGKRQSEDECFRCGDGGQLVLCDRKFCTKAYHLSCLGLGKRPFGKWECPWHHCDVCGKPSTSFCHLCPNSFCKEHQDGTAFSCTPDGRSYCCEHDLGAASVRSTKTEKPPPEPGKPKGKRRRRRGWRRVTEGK", "experiment": "Radioisotope-based methyltransferase assay (selectivity)"}, "H3K9me2 in HUDEP-2 cells": {"system": "H3K9me2 in HUDEP-2 cells", "experiment": "Western blotting of H3K9me2 in HUDEP-2 cells", "assay_type": "cell-based, human", "conditions": "HUDEP-2, 4 days", "description": "Preparation of cell lysates and western blotting were performed as described previously. Protein from cells lysates in lysis buffer (50 mM Tris-HCl (pH 7.5), 150 mM NaCl, 5 mM EDTA, 0.1% NP-40, 1 mM dithiothreitol) were separated by sodium dodecyl sulfate–polyacrylamide gel electrophoresis (SDS-PAGE) and transferred to a polyvinylidene difluoride (PVDF) membrane (Millipore) by electroblotting. The membranes incubated with primary antibodies overnight at 4 °C and secondary antibodies for 1 h at room temperature. The immune complexes were detected with the Immobilon Western Chemiluminescent HRP Substrate (Millipore). Luminescence was analyzed on a FUSION SOLO S (Vilber). Western blot bands were visualized using Evolution Capt software (M&S Instruments Inc.). Primary antibodies used were anti-G9a (1:1000, CST, #3306), anti–α-tubulin (1:5000, Abcam, ab18251), anti-H3K9me2 (1:3000, Abcam, ab1220), anti-H3 (1:5000, Abcam, ab1791), anti-H3K27me3 (1:3000, Sigma, 07-449), anti-GLP (1:1000, CST, #35005), anti-FLAG (100 ng/ml, Fujifilm, 01422383), anti-His (1:5000, MBL, PM032), anti-BCL11A (1:1000, abcam, ab19487), anti-ZBTB7A (1:1000, CST, #50565), anti-CHD3 (1:1000, Novus Biologicals, NB100-60412), and anti-CHD4 (1:1000, abcam, ab240640). Uncropped scans of all of the blots are available in Source Data file."}, "HUDEP-2 cells": {"system": "HUDEP-2 cells", "experiment": "RNA-seq analysis of HUDEP-2 cells", "assay_type": "cell-based, human", "description": "Total RNAs were extracted using an RNeasy Plus Mini Kit (QIAGEN). RNA-seq experiments were performed by GENEWIZ or Rhelixa. Gene Ontology (GO) analysis in Supplementary Fig. 7a, the statistical test was performed by Wallenius in goseq software. In Supplementary Tables 8(1-3), the statistical test (adjp) was determined using multiple comparisons analysis, Benjamini-Hochberg adjusted FDR test of the default of AltAnalyze (Ver. 2.0)."}}, "data": [{"smiles": "Cc1c(C(=O)NC(CCC2CC2)C(=O)Nc2ccc(C#N)cc2)[nH]c2c1C(=O)CC(C)(C)C2", "note": "(stereo not shown) [RK-701]", "values": [{"measurement": "IC50", "setting": "NSD2 (E1099K)", "result": "> 100", "unit": "µM"}, {"measurement": "cellular H3K9me2 levels", "setting": "H3K9me2 in HUDEP-2 cells", "result": "dose-dependent reduction"}, {"measurement": "FoldChange BCL11A", "setting": "HUDEP-2 cells; HUDEP-2", "result": "1.17±0.09"}, {"measurement": "FoldChange BGLT3", "setting": "HUDEP-2 cells; HUDEP-2", "result": "3.40±0.34"}, {"measurement": "FoldChange CHD3", "setting": "HUDEP-2 cells; HUDEP-2", "result": "0.88±0.02"}, {"measurement": "FoldChange CHD4", "setting": "HUDEP-2 cells; HUDEP-2", "result": "1.00±0.02"}, {"measurement": "FoldChange DNMT1", "setting": "HUDEP-2 cells; HUDEP-2", "result": "0.97±0.02"}, {"measurement": "FoldChange GATA1", "setting": "HUDEP-2 cells; HUDEP-2", "result": "0.97±0.04"}, {"measurement": "FoldChange GATAD2A", "setting": "HUDEP-2 cells; HUDEP-2", "result": "0.96±0.03"}, {"measurement": "FoldChange GATAD2B", "setting": "HUDEP-2 cells; HUDEP-2", "result": "1.02±0.04"}, {"measurement": "FoldChange HBA1", "setting": "HUDEP-2 cells; HUDEP-2", "result": "1.15±0.13"}, {"measurement": "FoldChange HBA2", "setting": "HUDEP-2 cells; HUDEP-2", "result": "1.19±0.04"}, {"measurement": "FoldChange HBBP1", "setting": "HUDEP-2 cells; HUDEP-2", "result": "0.99±0.02"}, {"measurement": "FoldChange HBD", "setting": "HUDEP-2 cells; HUDEP-2", "result": "1.01±0.03"}, {"measurement": "FoldChange HBE1", "setting": "HUDEP-2 cells; HUDEP-2", "result": "4.70±0.71"}, {"measurement": "FoldChange HBG1", "setting": "HUDEP-2 cells; HUDEP-2", "result": "2.51±0.58"}, {"measurement": "FoldChange HBG2", "setting": "HUDEP-2 cells; HUDEP-2", "result": "3.33±0.28"}, {"measurement": "FoldChange HBM", "setting": "HUDEP-2 cells; HUDEP-2", "result": "0.96±0.04"}, {"measurement": "FoldChange HBQ1", "setting": "HUDEP-2 cells; HUDEP-2", "result": "1.09±0.05"}, {"measurement": "FoldChange HBZ", "setting": "HUDEP-2 cells; HUDEP-2", "result": "0.31±0.08"}, {"measurement": "FoldChange HDAC1", "setting": "HUDEP-2 cells; HUDEP-2", "result": "0.96±0.03"}, {"measurement": "FoldChange HDAC2", "setting": "HUDEP-2 cells; HUDEP-2", "result": "0.95±0.03"}, {"measurement": "FoldChange IKZF1", "setting": "HUDEP-2 cells; HUDEP-2", "result": "1.07±0.01"}, {"measurement": "FoldChange KLF1", "setting": "HUDEP-2 cells; HUDEP-2", "result": "1.02±0.02"}, {"measurement": "FoldChange LDB1", "setting": "HUDEP-2 cells; HUDEP-2", "result": "1.03±0.04"}, {"measurement": "FoldChange LIN28B", "setting": "HUDEP-2 cells; HUDEP-2", "result": "0.91±0.07"}, {"measurement": "FoldChange LMO2", "setting": "HUDEP-2 cells; HUDEP-2", "result": "1.28±0.04"}, {"measurement": "FoldChange MBD2", "setting": "HUDEP-2 cells; HUDEP-2", "result": "1.03±0.02"}, {"measurement": "FoldChange MBD3", "setting": "HUDEP-2 cells; HUDEP-2", "result": "0.96±0.02"}, {"measurement": "FoldChange MIR26B", "setting": "HUDEP-2 cells; HUDEP-2", "result": "0.96±0.78"}, {"measurement": "FoldChange MTA1", "setting": "HUDEP-2 cells; HUDEP-2", "result": "0.92±0.04"}, {"measurement": "FoldChange MTA2", "setting": "HUDEP-2 cells; HUDEP-2", "result": "0.95±0.02"}, {"measurement": "FoldChange MYB", "setting": "HUDEP-2 cells; HUDEP-2", "result": "0.91±0.01"}, {"measurement": "FoldChange NR2C1", "setting": "HUDEP-2 cells; HUDEP-2", "result": "1.11±0.04"}, {"measurement": "FoldChange NR2C2", "setting": "HUDEP-2 cells; HUDEP-2", "result": "0.97±0.04"}, {"measurement": "FoldChange RBBP4", "setting": "HUDEP-2 cells; HUDEP-2", "result": "0.96±0.03"}, {"measurement": "FoldChange RBBP7", "setting": "HUDEP-2 cells; HUDEP-2", "result": "0.98±0.03"}, {"measurement": "FoldChange SOX6", "setting": "HUDEP-2 cells; HUDEP-2", "result": "1.70±0.07"}, {"measurement": "FoldChange TAL1", "setting": "HUDEP-2 cells; HUDEP-2", "result": "1.12±0.04"}, {"measurement": "FoldChange TCF3", "setting": "HUDEP-2 cells; HUDEP-2", "result": "0.92±0.02"}, {"measurement": "FoldChange ZBTB7A", "setting": "HUDEP-2 cells; HUDEP-2", "result": "0.98±0.04"}, {"measurement": "FoldChange ZFPM1", "setting": "HUDEP-2 cells; HUDEP-2", "result": "0.90±0.09"}, {"measurement": "number of genes transcriptionally upregulated", "setting": "HUDEP-2 cells; HUDEP-2", "result": 204, "unit": "genes"}, {"measurement": "FoldChange HBB", "setting": "HUDEP-2 cells; HUDEP-2, 1 μM, 4 days", "result": "1.13±0.05"}, {"measurement": "log2FoldChange CTD-2643I7.1 (BGLT3)", "setting": "HUDEP-2 cells; HUDEP-2, 1 μM, 4 days", "result": 1.72}, {"measurement": "log2FoldChange HBE1", "setting": "HUDEP-2 cells; HUDEP-2, 1 μM, 4 days", "result": 2.16}, {"measurement": "log2FoldChange HBG1", "setting": "HUDEP-2 cells; HUDEP-2, 1 μM, 4 days", "result": 1.23}, {"measurement": "log2FoldChange HBG2", "setting": "HUDEP-2 cells; HUDEP-2, 1 μM, 4 days", "result": 1.73}, {"measurement": "log2FoldChange HBZ", "setting": "HUDEP-2 cells; HUDEP-2, 1 μM, 4 days", "result": -1.67}]}]}
